Patent US12433867B2, “Pharmaceutical composition comprising FLT3 inhibitor and hypomethylating agent for treating acute myeloid leukemia” (HANMI PHARM. CO., LTD, priority 2019, dated 2025)

Columns and labels:
MOLM-13-Luc2 cell line = test: Mouse model xenografted with MOLM-13-Luc2 cell line, survival; assay type: in vivo; details: NOG mouse, MOLM-13-Luc2 i.v.; Compound A 10 mg/kg/day oral once a day; azacitidine 3 mg/kg/day i.p. twice a week
Protocol: A comparison of Compound A and azacitidine or an efficacy test of combination thereof was conducted in a mouse model xenografted with a MOLM-13-Luc2 cell line which is a MOLM-13 cell line genetically modified to express luciferase.
The MOLM-13-Luc2 cell line was injected to a tail vein of NOG mouse at 5×10^6 cells/0.1 mL/mouse, and allowed to grow.
Bioluminescence images of MOLM-13-Luc2 cells were measured using a Lumina III IVIS imaging system (PerkinElmer) and quantified using a Living image software (PerkinElmer). When measured, D-luciferin (D-luciferin) was intraperitoneally injected to mice, and imaging was were performed under anesthesia using isoflurane. Images were measured for a first group separation during the experiment, and then measured on a specific day according to the purpose of the test.
A control group orally received a DMSO/PEG400/DW (ratio=0.5/2/7.5, v/v) mixed solution once a day, and a Compound A group was orally administered once a day at a dose of 10 mg/kg/day. An azacitidine group which is a hypomethylating agent (HMA) group was intraperitoneally administered at a dose of 3 mg/kg/day twice a week (on day 1 and day 4 of the week). A combination group was orally administered with Compound A at a dose of 10 mg/kg/day once a day, and azacitidine was intraperitoneally administered at a dose of 3 mg/kg/day twice a week (on day 1 and day 4 every week). Each group received individual drugs until all subjects in each group died.
The Y-axis represents a percentage (%) of surviving mice (survival rate) in each experimental group, and the X-axis represents the number of days of administration.

[1] = test system: MOLM-13 (DSMZ no. ACC 554) cell line; test: MOLM-13 cell growth inhibition (CellTiter-Glo), Compound A alone or combined with azacitidine; assay type: cell-based
Protocol: By examining growth inhibition of an MOLM-13 (DSMZ no. ACC 554) cell line which was treated with, in combination, an FLT3 inhibitor, 5-chloro-N-(3-cyclopropyl-5-(((3R,5S)-3,5-dimethylpiperazin-1-yl)methyl)phenyl)-4-(6-methyl-1H-indol-3-yl)pyrimidin-2-amine (hereinafter, Compound A) and a hypomethylating agent (HMA), 4-amino-1-β-D-ribofuranosyl-1,3,5-triazin-2(1H)-one (hereinafter, azacitidine), an effect of combined treatment of the two drugs was tested. The MOLM-13 cell line cultured in an RPMI 1640 culture medium (RPMI=Rosewell Parker Memory Institute) supplemented with 20% FBS was inoculated at a density of 2×10^4 cells per well in a 96-well plate, and Compound A was subjected to ½ serial dilution at predetermined concentrations (e.g., 10 nM to 0.078 nM) using the same culture medium. […] To measure cell viability, a CellTiter-Glo® (CTG) assay was performed, and for result analysis, 50% cell growth inhibition (GI50) was calculated using a GraphPad Prism software.

[2] = test system: Ba/F3 cells expressed in an FLT3 ITD/D835Y xenografted mouse model; test: In vivo study, Ba/F3 FLT3 ITD/D835Y xenografted mouse model
[3] = test system: Ba/F3 cells expressed in an FLT3 ITD/F691L xenografted mouse model; test: In vivo study, Ba/F3 FLT3 ITD/F691L xenografted mouse model

Row | Compound | median survival period (MOLM-13-Luc2 cell line) | overall survival period (MOLM-13-Luc2 cell line) | GI40 (concentration inhibiting MOLM-13 cell growth by about 40%) ([1]; MOLM-13 cells) | therapeutic effect / overcoming resistance caused by FLT3 mutations [2] | GI50 ([1]; Homo sapiens, 72 h, MOLM-13, incubation 3 days, CTG assay, combination with azacitidine at 800 nM, GI50 as Compound A concentration) | therapeutic effect / overcoming resistance caused by FLT3 mutations [3]
1 | Nc1ncn([C@@H]2O[C@H](CO)[C@@H](O)[C@H]2O)c(=O)n1 [Azacitidine, 4-amino-1-β-D-ribofuranosyl-1,3,5-triazin-2(1H)-one, reference compound] | 16 days | 18 days | 800 nM | – | – | –
2 | Cc1ccc2c(-c3nc(Nc4cc(CN5C[C@@H](C)N[C@@H](C)C5)cc(C5CC5)c4)ncc3Cl)c[nH]c2c1 [Compound A, 5-chloro-N-(3-cyclopropyl-5-(((3R,5S)-3,5-dimethylpiperazin-1-yl)methyl)phenyl)-4-(6-methyl-1H-indol-3-yl)pyrimidin-2-amine] | 17 days | 20 days | – | shows therapeutic effects | 2.5 nM | shows therapeutic effects
